Measured values from paper PMC7047128, “The Putative TCP-1 Chaperonin Is an Important Player Involved in Sialic Acid-Dependent Host Cell Invasion by Toxoplasma gondii” (Frontiers in Microbiology, 2020).

Target: T1, TgTCP-1 (putative TCP-1 chaperonin, TGME49_318410) (Toxoplasma gondii, UniProt A0A125YLR8)
T1 construct: full-length CDS, aa 1-537, N-terminal GST tag kept (pGEX-4T-1), E. coli BL21 (DE3), about 85 kDa
Assay: pull-down on sialic acid-agarose with competition by free sialic acid, anti-GST Western blot
Assay type: binding
Conditions: 1 uM GST-TgTCP-1; free sialic acid 0.001-100 mg/mL; PBS wash; 4 C

T1 sequence (A0A125YLR8 entry or part of it): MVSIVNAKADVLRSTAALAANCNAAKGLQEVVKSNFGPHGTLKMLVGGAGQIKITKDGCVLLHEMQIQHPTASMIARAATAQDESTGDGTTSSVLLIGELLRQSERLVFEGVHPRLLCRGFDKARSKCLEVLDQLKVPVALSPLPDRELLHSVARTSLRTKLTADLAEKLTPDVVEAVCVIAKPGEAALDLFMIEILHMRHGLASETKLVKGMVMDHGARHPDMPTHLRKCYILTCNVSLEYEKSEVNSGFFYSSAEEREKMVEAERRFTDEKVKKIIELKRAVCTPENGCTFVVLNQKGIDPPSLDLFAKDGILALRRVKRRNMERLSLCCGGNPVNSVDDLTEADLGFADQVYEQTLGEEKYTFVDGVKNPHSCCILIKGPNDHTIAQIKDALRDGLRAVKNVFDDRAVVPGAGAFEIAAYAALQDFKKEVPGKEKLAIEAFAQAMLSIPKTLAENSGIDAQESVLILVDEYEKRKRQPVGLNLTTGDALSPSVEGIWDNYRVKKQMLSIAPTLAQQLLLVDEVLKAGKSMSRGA

CC(=O)N[C@H]1[C@H]([C@H](O)[C@H](O)CO)OC(O)(C(=O)O)C[C@@H]1O (stereo partly shown) [sialic acid]
pull-down on sialic acid-agarose with competition by free sialic acid, anti-GST: binding of GST-TgTCP-1 to sialic acid-agarose was inhibited by sialic acid in a dose dependent manner
